A short description of data set [1]: Stabilizer test (sodium bisulfite, EDTA-2Na dihydrate): color, pH and osmolality over 10 days. As for the experimental part:
First, 200 μl of sample F6 was added to 1800 μl of water for injection, and then stirred at room temperature, thereby preparing six samples, each consisting of 2 ml of a 10-fold-diluted sugar solution (samples a, a-1, b, b-1, c and c-1).
Next, the pH of each of the six samples was measured, and then adjusted with NaOH so as to be close to in vivo plasma pH 7.4.
A 0.1% solution of sodium bisulfite was prepared by mixing 5 mg of sodium bisulfite as stabilizer with 5 ml of water for injection, and a 0.2% solution of EDTA-2Na dihydrate was prepared by mixing 10 mg of EDTA-2Na dihydrate with 5 ml of water for injection. Then, 110 μl of each of the prepared solutions was added to some of the six 10-fold-diluted sugar solutions.

For data set [2] the following is noted: cited from earlier work.
The nature of data set [3]: Preparation of clear sugar mixture solutions: clearness of dissolution. The data set is classed as physicochemical. The following applies: added in an amount of two times the solubility until colorless, water for injection, room temperature. On the procedure: Then, each sugar was added to 2 ml of water for injection, and stirred at room temperature until a clear solution was obtained. […] In addition, a sample was prepared by doubling the amount of sample F1, and the clearness of the solution was observed (F2).

Data set [4] can be described thus: Preliminary experiment on amino acids excluded from the test. Type of data set: physicochemical.

In brackets after ≈: the same amount, converted by molar mass.

`O.O.O=C([O-])CN(CCN(CC(=O)O)CC(=O)O)CC(=O)[O-].[Na+].[Na+]` [EDTA-2NA dihydrate, disodium edetate dihydrate]: the “suitability as stabilizer for sample F6” value in data set [1] was “not suitable”.
On to `O=C[C@H](O)[C@@H](O)[C@@H](O)[C@H](O)CO` [Galactose, galactose], for which, in data set [2], the “Solubility (Colorless): Solubility until colorless” value (“Solubility (Colorless)” below) was 100 mg/mL (≈ 555 mM) and the “Solubility (Maximum): A maximum of solubility” value (from here on “Solubility (Maximum): A maximum”) was 683 mg/mL. The clearness of dissolution entry in data set [3] is reported as “clearly dissolved”.
For `O=C[C@H](O)[C@@H](O)[C@H](O)[C@H](O)CO` [Glucose, glucose], the “Solubility (Colorless)” value in data set [2] was 133 mg/mL (≈ 738 mM). Besides, the clearness of dissolution entry in data set [3] was “clearly dissolved”.
`C[C@H](O)[C@@H](O)[C@@H](O)[C@H](O)C=O` [L-Fucose, L-fucose]: in data set [2], the “Solubility (Colorless)” value is 50 mg/mL (≈ 305 mM) and the “Solubility (Maximum): A maximum” value is 827 mg/mL. In data set [3], the clearness of dissolution entry is “clearly dissolved”.
Turning to `CC(=O)N[C@H]1C(O)O[C@H](CO)[C@H](O)[C@@H]1O` (stereo partly drawn) [N-Acetyl galactosamine, N-acetylgalactosamine], in data set [2], the “Solubility (Colorless)” value was 50 mg/mL (≈ 226 mM) and the “Solubility (Maximum): A maximum” value is 100 mg/mL. In addition, the clearness of dissolution entry in data set [3] is reported as “clearly dissolved”.
Take `CC(=O)N[C@H]1C(O)O[C@H](CO)[C@@H](O)[C@@H]1O` (stereo partly drawn) [N-Acetyl glucosamine, N-acetylglucosamine]: in data set [2], the “Solubility (Colorless)” value was 50 mg/mL (≈ 226 mM) and the “Solubility (Maximum): A maximum” value is 50 mg/mL. The clearness of dissolution entry in data set [3] is on record as “clearly dissolved”.
With `CC(=O)N[C@H]1[C@H]([C@H](O)[C@H](O)CO)OC(O)(C(=O)O)C[C@@H]1O` (stereo partly drawn) [N-Acetyl neuraminic acid, N-acetylneuraminic acid], in data set [2], the “Solubility (Colorless)” value is 50 mg/mL (≈ 162 mM) and the “Solubility (Maximum): A maximum” value is 50 mg/mL. Also, the clearness of dissolution result in data set [3] is “not clearly dissolved”.
For `O=C[C@H](O)[C@@H](O)[C@H](O)CO` [Xylose, xylose], in data set [2], the “Solubility (Colorless)” value is 50 mg/mL (≈ 333 mM) and the “Solubility (Maximum): A maximum” value was 100 mg/mL. Moreover, the clearness of dissolution entry in data set [3] is reported as “not clearly dissolved”.
`N[C@@H](CS)C(=O)O` [cysteine]: the “initial osmolality variation when added” value in data set [4] is on record as “excessively high”.
Consider `O=S([O-])O.[Na+]` [sodium bisulfite], for which the “suitability as stabilizer for sample F6” value in data set [1] is reported as “not suitable”.
With `N[C@@H](Cc1c[nH]c2ccccc12)C(=O)O` [tryptophan], the “initial osmolality variation when added” value in data set [4] is reported as “excessively high”.

The values above are taken from patent US12414959B2, “Glucose infusion solution composition” (priority 2017, dated 2025).
